# Where two headings read alike, the source gives them in different places.
# Legend:
# Link_TSG6 [1] = target: T1, Link_TSG6 (Homo sapiens, UniProt P98066); assay: ITC of HA oligosaccharides binding to Link_TSG6; details: for N / ΔG / ΔH / −TΔS / Kd: 25 °C, 5 mM MES pH 6.0, mean ± SEM; for N: 0.029 mM Link_TSG6, 0.29 mM oligosaccharide; for N / Kd: four titrations; for Kd: read-out: KD; for % Binding affinity Link_TSG6: Table 6, relative to unmodified oligosaccharide of the same length, by ITC
# T1 construct: made in house
# Protocol: ITC experiments were performed using a MicroCal PEAQ-ITC instrument (Malvern Instruments). Oligosaccharide stock solutions were prepared at 0.29 mM (in 5 mM MES, pH 6.0) and injected (18 × 2 μl with 120 s spacing between injections) into the cell containing ∼200 μl Link_TSG6 (0.029 mM) in matched buffer at 25 °C. Data were fit to a one site binding model, after subtracting the heats from the last three injections to account for heat of dilution of the oligosaccharide into buffer. Each oligosaccharide was analyzed in four independently performed ITC experiments.
# hisCD44_HABD^20–169 = target: T2, hisCD44_HABD^20–169 (Homo sapiens, UniProt P16070); assay: MST of HA oligosaccharides binding to hisCD44_HABD^20–169; details: for % Binding affinity hisCD44_HABD^20–169: Table 6, relative to unmodified oligosaccharide of the same length, by MST
# T2 construct: A novel construct consisting of residues 20 to 169 of human CD44 and an N-terminal six-histidine tag; made in house
# Protocol: For hisCD44_HABD^20–169, interactions with HA oligosaccharides were assessed using MST. Protein (200 nM) was labeled with 5 μM red-Tris-NTA-650 dye following the manufacturer’s instructions in 10 mM Hepes, pH 7.4, 150 mM NaCl, 0.05% (v/v) Tween-20 (interaction buffer). Stock solutions of HA oligosaccharides (5 mM in interaction buffer) were serially diluted (1:1 in interaction buffer) 16 times before each concentration was mixed with an equal volume of labeled protein (10 nM final concentration hisCD44_HABD^20–169). Samples were loaded into standard glass capillaries (NanoTemper) and thermophoresis measured at 25 °C (with active temperature control) using a Monolith NT.115pico instrument (NanoTemper) running NT Control software (version 1.0.1). All experiments were performed in triplicate and data analyzed with the “KD fit model” in the NT Analysis software (version 2.0.2).
# recombinant human TSG-6 = target: T3, recombinant human TSG-6 (Homo sapiens, UniProt P19827+P98066); assay: In vitro HC-transfer assay (IαI + rhTSG-6, Western blot anti-HC1); type: biochemical; details: 15 μM HA, 1.8 μM IαI, rhTSG-6, 2 h at 37 °C; for Substrate for HC transfer: Table 6; for Activity as substrate for HC transfer (text): Western blot anti-HC1
# T3 construct: TSG-6–mediated HC-transfer assays (using full-length TSG6); purchased R&D Systems
# Protocol: Covalent transfer of HC from IαI onto unmodified and chemically modified HA oligosaccharides was analyzed using the assay described previously ([26]). All reactions were performed using a buffer of 20 mM Hepes, pH 7.5, 150 mM NaCl, and 5 mM MgCl2. In a “standard” assay, HA oligosaccharides were at 15 μM, human IαI ([97]) 1.8 at μM (based on a molecular weight of 180 kDa), and recombinant human TSG-6 (R&D Systems) at 2.8 μM (based on a molecular weight of 35 kDa). Reaction mixtures were analyzed by SDS-PAGE using 4 to 12% bis-tris polyacrylamide gels (Invitrogen). For Western blot analysis, proteins were transferred onto nitrocellulose membrane (GE Healthcare) and incubated with antisera against HC1 (CP7, 1:10,000; ([98])). Bound primary antibody was detected using goat-anti-rabbit IgG conjugated to IR dye (LI-COR Biosciences) and blots imaged using an Odyssey Clx near-IR fluorescence imaging system (LICOR Biosciences).
# Link_TSG6 [2] = test system: Link_TSG6; design: method as in PMID 24403066; details: cited from earlier work
# [3] = Table 5, MST, 10 mM Hepes pH 7.5, 150 mM NaCl, 0.05% Tween-20, 25 °C, mean ± SD, three titrations, read-out: KD
# T3 sequence (P98066 18-277): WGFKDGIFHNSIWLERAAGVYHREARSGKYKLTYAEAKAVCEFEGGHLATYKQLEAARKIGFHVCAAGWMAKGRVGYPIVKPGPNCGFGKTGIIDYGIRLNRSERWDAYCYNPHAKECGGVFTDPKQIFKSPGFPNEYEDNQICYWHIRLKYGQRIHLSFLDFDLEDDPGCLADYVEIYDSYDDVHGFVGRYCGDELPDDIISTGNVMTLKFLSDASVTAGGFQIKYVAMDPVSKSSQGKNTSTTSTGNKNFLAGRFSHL
# T3 sequence (P19827 35-672 limits assumed): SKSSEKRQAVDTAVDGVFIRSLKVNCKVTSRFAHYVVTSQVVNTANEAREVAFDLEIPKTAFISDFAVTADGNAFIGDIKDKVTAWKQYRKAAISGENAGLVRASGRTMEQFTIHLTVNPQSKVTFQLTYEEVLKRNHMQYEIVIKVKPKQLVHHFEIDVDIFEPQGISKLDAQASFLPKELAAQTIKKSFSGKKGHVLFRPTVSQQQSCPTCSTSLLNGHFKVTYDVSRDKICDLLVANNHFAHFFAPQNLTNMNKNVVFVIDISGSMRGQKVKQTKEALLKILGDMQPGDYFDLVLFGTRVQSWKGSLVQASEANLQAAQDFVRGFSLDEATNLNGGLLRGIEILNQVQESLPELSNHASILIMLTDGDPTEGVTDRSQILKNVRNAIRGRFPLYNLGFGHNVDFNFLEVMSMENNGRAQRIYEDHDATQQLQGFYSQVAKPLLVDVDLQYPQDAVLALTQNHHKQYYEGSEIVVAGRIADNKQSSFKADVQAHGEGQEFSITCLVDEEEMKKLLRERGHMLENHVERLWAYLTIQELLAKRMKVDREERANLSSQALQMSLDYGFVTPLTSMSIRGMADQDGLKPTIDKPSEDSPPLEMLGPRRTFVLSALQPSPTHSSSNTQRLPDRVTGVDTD
# T2 sequence (P16070 20-169): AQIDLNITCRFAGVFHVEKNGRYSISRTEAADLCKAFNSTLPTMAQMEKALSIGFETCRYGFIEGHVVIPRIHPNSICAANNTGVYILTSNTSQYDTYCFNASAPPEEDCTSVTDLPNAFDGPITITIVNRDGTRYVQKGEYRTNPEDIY
# T1 sequence (P98066 36-129 limits assumed): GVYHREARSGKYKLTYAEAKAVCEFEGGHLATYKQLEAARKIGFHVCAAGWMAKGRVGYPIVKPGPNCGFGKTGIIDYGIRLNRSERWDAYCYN
SMILES,"−TΔS (Link_TSG6 [1]; Table 4, ITC) [kcal•mol^a1]",% Binding affinity Link_TSG6 (Link_TSG6 [1]) [%],"% HAx^AN: percentage of binding affinity (KB) compared to the unmodified oligosaccharide of the same length (hisCD44_HABD^20–169; Table 5, MST) [%]",Kd (hisCD44_HABD^20–169; [3]) [µM],% Binding affinity hisCD44_HABD^20–169 (hisCD44_HABD^20–169) [%],Substrate for HC transfer (recombinant human TSG-6),Activity as substrate for HC transfer (text) (recombinant human TSG-6),"N (Link_TSG6 [1]; Table 4, ITC)","ΔG (Link_TSG6 [1]; Table 4, ITC) [kJ/mol]","ΔH (Link_TSG6 [1]; Table 4, ITC) [kJ/mol]","Kd (Link_TSG6 [1]; Table 4, ITC) [µM]",% of binding to hisCD44_HABD^20–169 compared to the unmodified oligosaccharide of the same length (hisCD44_HABD^20–169; MST) [%],also measured
"CC(=O)N[C@H]1[C@H](O[C@H]2[C@H](O)[C@@H](O)[C@H](O[C@H]3[C@H](O)[C@@H](CO)O[C@@H](O[C@H]4[C@H](O)[C@@H](O)[C@H](O[C@H]5[C@H](O)[C@@H](CO)O[C@@H](O[C@H]6[C@H](O)[C@@H](O)[C@H](O[C@H]7[C@H](O)[C@@H](CO)OC(O)[C@@H]7NC(C)=O)O[C@@H]6C(=O)O)[C@@H]5NC(C)=O)O[C@@H]4C(=O)O)[C@@H]3NC(C)=O)O[C@@H]2C(=O)O)O[C@H](CO)[C@@H](O)[C@@H]1O[C@@H]1O[C@H](C(=O)O)[C@@H](O)[C@H](O)[C@H]1O (stereo partly drawn) [HA8^AN, reference compound]",−1.63 ± 0.24,100,100,51 ± 5,100,Yes,acted as substrates,,,,,,"N (Link_TSG6 [1]; Table 1, ITC): 0.98 ± 0.01; ΔG (Link_TSG6 [1]; Table 1, ITC): -37.2 ± 0.13 kJ/mol; ΔH (Link_TSG6 [1]; Table 1, ITC): -30.4 ± 0.837 kJ/mol; −TΔS (Link_TSG6 [1]; Table 1, ITC): -6.82 ± 1 kJ/mol; Kd (Link_TSG6 [1]; Table 1, ITC): 0.31 ± 0.02 µM; Kd (hisCD44_HABD^20–169; MST, read-out: KD for hisCD44_HABD^20–169): ~50 µM; % HAn^AN: percentage of binding affinity (KB) compared to the unmodified oligosaccharide of the same length (hisCD44_HABD^20–169; Table 2, MST): 100%; Kd (hisCD44_HABD^20–169; Table 2, MST, 10 mM Hepes pH 7.5, 150 mM NaCl, 0.05% Tween-20, 25 °C, mean (±SD), three titrations, read-out: KD): 51 µM; Fold greater affinity for Link_TSG6 (compared to HA8^AN) (Link_TSG6 [2]): 1.9 fold"
CC(=O)N[C@H]1[C@H](O[C@H]2[C@H](O)[C@@H](O)[C@H](O[C@H]3[C@H](O)[C@@H](CO)O[C@@H](O[C@H]4[C@H](O)[C@@H](O)[C@H](O[C@@H]([C@H](O)[C@H](O)CO)[C@H](CNc5cccc6c5CCC6)NC(C)=O)O[C@@H]4C(=O)O)[C@@H]3NC(C)=O)O[C@@H]2C(=O)O)O[C@H](CO)[C@@H](O)[C@@H]1O[C@@H]1O[C@H](C(=O)O)[C@@H](O)[C@H](O)[C@H]1O [HA6-4AI],−0.82 ± 0.30,77,28,369 ± 43,28,No,No HC•HA6 complexes were observed,0.97 ± 0.03,-33.4 ± 0.13,-30 ± 1.34,1.42 ± 0.06,28,
COc1ccc(C(=O)O)c(NC[C@H](NC(C)=O)[C@@H](O[C@@H]2O[C@H](C(=O)O)[C@@H](O[C@@H]3O[C@H](CO)[C@@H](O)[C@H](O[C@@H]4O[C@H](C(=O)O)[C@@H](O[C@@H]5O[C@H](CO)[C@@H](O)[C@H](O[C@@H]6O[C@H](C(=O)O)[C@@H](O[C@@H]7O[C@H](CO)[C@@H](O)[C@H](O[C@@H]8O[C@H](C(=O)O)[C@@H](O)[C@H](O)[C@H]8O)[C@H]7NC(C)=O)[C@H](O)[C@H]6O)[C@H]5NC(C)=O)[C@H](O)[C@H]4O)[C@H]3NC(C)=O)[C@H](O)[C@H]2O)[C@H](O)[C@H](O)CO)c1 [HA8-2A4MBA],−0.16 ± 1.94,21,141,36 ± 9,141,Yes,,1.04 ± 0.08,-34.4 ± 1.67,-33.7 ± 6.49,1.46 ± 0.96,141,% of binding to Link_TSG6 compared to the unmodified oligosaccharide of the same length (Link_TSG6 [1]; ITC): 21%; Fold reduction in affinity for Link_TSG6 compared to the unmodified oligosaccharide (Link_TSG6 [1]; ITC): 4.8 fold; Fold increase in affinity for CD44_HABD compared to the unmodified oligosaccharide (hisCD44_HABD^20–169; MST): 1.4 fold

# Source: publication PMC11460632, “Chemical modification of hyaluronan oligosaccharides differentially modulates hyaluronan–hyaladherin interactions” (The Journal of Biological Chemistry, 2024)
